# Values of other authors, collected in paper PMC10323144, “Garbage in, garbage out: how reliable training data improved a virtual screening approach against SARS-CoV-2 MPro” (Frontiers in Pharmacology, 2023).
# Test system: MPro
# Settings: compiled from peer-reviewed sources (287 compounds) ref the 18 original articles; cited from earlier work
row,SMILES,Class (MPro activity class)
1,COc1ccc(CN=c2[nH]c(N3CCC[C@H]3CO)ncc2C(=O)NCc2ncccn2)cc1Cl,"0 (compounds with IC50 > 20 μM, percentage inhibition <80% at 20 µM or 50 μM, or percentage enzyme inhibition <50% at 10 µM were labelled as INACTIVE)"
2,COc1cc(OC)nc(O[C@H](C(=O)O)C(OC)(c2ccccc2)c2ccccc2)n1,"0 (compounds with IC50 > 20 μM, percentage inhibition <80% at 20 µM or 50 μM, or percentage enzyme inhibition <50% at 10 µM were labelled as INACTIVE)"
3,O=C(O)CNC(=O)c1ncc(-c2cccc(Cl)c2)cc1O,"0 (compounds with IC50 > 20 μM, percentage inhibition <80% at 20 µM or 50 μM, or percentage enzyme inhibition <50% at 10 µM were labelled as INACTIVE)"
4,"COc1cc(C2OCC3C(c4ccc(OC5OC(CO)C(O)C(O)C5O)c(OC)c4)OCC23)ccc1O (single isomer, unassigned; (+)) [(+)-Pinoresinol-4-O-β-D-glucopyraside]","0 (compounds with IC50 > 20 μM, percentage inhibition <80% at 20 µM or 50 μM, or percentage enzyme inhibition <50% at 10 µM were labelled as INACTIVE)"
5,"N#Cc1ccccc1-c1cc(-c2ccccn2)cn(-c2ccccc2)c1=O [1 (perampanel), perampanel]","0 (compounds with IC50 > 20 μM, percentage inhibition <80% at 20 µM or 50 μM, or percentage enzyme inhibition <50% at 10 µM were labelled as INACTIVE)"
6,"O=C(C=Cc1ccc(O)c(O)c1)OC1CC(OC(=O)C=Cc2ccc(O)c(O)c2)(C(=O)O)CC(O)C1O (stereo not shown) [1,3-Dicaffeoylquinic acid]","0 (compounds with IC50 > 20 μM, percentage inhibition <80% at 20 µM or 50 μM, or percentage enzyme inhibition <50% at 10 µM were labelled as INACTIVE)"
7,"O=c1cc(-c2ccccc2)oc2ccc(O)c(O)c12 [5,6-Dihydroxyflavone]","0 (compounds with IC50 > 20 μM, percentage inhibition <80% at 20 µM or 50 μM, or percentage enzyme inhibition <50% at 10 µM were labelled as INACTIVE)"
8,COc1cccc2[nH]c(C(=O)NC(CC(C)C)C(=O)NC(CC3CCNC3=O)C(=O)c3nc4ccccc4s3)cc12 (stereo not shown) [5h],1 (Compounds with IC50 < 10 µM or with a percentage of enzyme inhibition >50% at 10 µM were labelled as ACTIVE)
9,"O=c1cc(-c2ccccc2)oc2cc(O)c(O)cc12 [6,7-Dihydroxyflavone]","0 (compounds with IC50 > 20 μM, percentage inhibition <80% at 20 µM or 50 μM, or percentage enzyme inhibition <50% at 10 µM were labelled as INACTIVE)"
10,O=C(Oc1cncc(Cl)c1)c1cccc2[nH]ccc12 [10_GRL0496],1 (Compounds with IC50 < 10 µM or with a percentage of enzyme inhibition >50% at 10 µM were labelled as ACTIVE)
11,O=CC(CC1CCNC1=O)NC(=O)C(Cc1cccc(F)c1)NC(=O)c1cc2ccccc2[nH]1 (stereo not shown) [11b],1 (Compounds with IC50 < 10 µM or with a percentage of enzyme inhibition >50% at 10 µM were labelled as ACTIVE)
12,O=C(Nc1ccc(N(Cc2ccsc2)C(=O)Cn2nnc3ccccc32)cc1)C1CC1 [16e (ML300)],1 (Compounds with IC50 < 10 µM or with a percentage of enzyme inhibition >50% at 10 µM were labelled as ACTIVE)
13,CNc1ccc(N(Cc2ccsc2)C(=O)Cn2nnc3ccccc32)cc1 [16j],1 (Compounds with IC50 < 10 µM or with a percentage of enzyme inhibition >50% at 10 µM were labelled as ACTIVE)
14,O=C(Cn1nnc2ccccc21)N(Cc1ccsc1)c1ccc(-c2ccccc2)cc1 [17a],1 (Compounds with IC50 < 10 µM or with a percentage of enzyme inhibition >50% at 10 µM were labelled as ACTIVE)
15,COc1cc(Cl)cc(OC(=O)Nc2cccnc2)c1 [AGN-NEW-891393a6-1],1 (Compounds with IC50 < 10 µM or with a percentage of enzyme inhibition >50% at 10 µM were labelled as ACTIVE)
16,O=C1N(Cc2cccc(Cl)c2)CCN1c1nccc2[nH]ncc12 [ALP-POS-91609ae9-3],1 (Compounds with IC50 < 10 µM or with a percentage of enzyme inhibition >50% at 10 µM were labelled as ACTIVE)
17,CCC(=O)Nc1ccc(N(Cc2ccsc2)C(=O)Cn2nnc3ccccc32)cc1 [ALP-POS-c59291d4-2],1 (Compounds with IC50 < 10 µM or with a percentage of enzyme inhibition >50% at 10 µM were labelled as ACTIVE)
18,CC(C)(C)NC(=O)C(c1cccnc1)N(C(=O)c1ccco1)c1ccc(C(C)(C)C)cc1 (stereo not shown) [ALP-POS-c59291d4-6],1 (Compounds with IC50 < 10 µM or with a percentage of enzyme inhibition >50% at 10 µM were labelled as ACTIVE)
19,CN(C)c1ccc(N(Cc2ccsc2)C(=O)Cn2nnc3ccccc32)cc1 [ALP-POS-d2866bdf-1],1 (Compounds with IC50 < 10 µM or with a percentage of enzyme inhibition >50% at 10 µM were labelled as ACTIVE)
20,Nc1nc(NC2CC2)c2ncn([C@H]3C=C[C@@H](CO)C3)c2n1 [Abacavir],"0 (compounds with IC50 > 20 μM, percentage inhibition <80% at 20 µM or 50 μM, or percentage enzyme inhibition <50% at 10 µM were labelled as INACTIVE)"

row,SMILES,Class (MPro activity class)
1,C[C@@H]1O[C@@H](O[C@@H]2[C@@H](O)[C@H](OCCc3ccc(O)c(O)c3)O[C@H](CO)[C@H]2OC(=O)/C=C/c2ccc(O)c(O)c2)[C@H](O)[C@H](O)[C@H]1O [Acteoside],"0 (compounds with IC50 > 20 μM, percentage inhibition <80% at 20 µM or 50 μM, or percentage enzyme inhibition <50% at 10 µM were labelled as INACTIVE)"
2,Cn1c(=O)cc(N2CCC[C@@H](N)C2)n(Cc2ccccc2C#N)c1=O [Alogliptin],"0 (compounds with IC50 > 20 μM, percentage inhibition <80% at 20 µM or 50 μM, or percentage enzyme inhibition <50% at 10 µM were labelled as INACTIVE)"
3,CCOC(=O)[C@H]1O[C@@H]1C(=O)N[C@@H](CC(C)C)C(=O)NCCC(C)C [Aloxistatin],"0 (compounds with IC50 > 20 μM, percentage inhibition <80% at 20 µM or 50 μM, or percentage enzyme inhibition <50% at 10 µM were labelled as INACTIVE)"
4,Cc1c(-c2ccnn2C)cc(C(=O)NCc2ccc(S(C)(=O)=O)cn2)c(=O)n1-c1cccc(C(F)(F)F)c1 [Alvestat],"0 (compounds with IC50 > 20 μM, percentage inhibition <80% at 20 µM or 50 μM, or percentage enzyme inhibition <50% at 10 µM were labelled as INACTIVE)"
5,CC(C)CN(C[C@@H](O)[C@H](Cc1ccccc1)NC(=O)O[C@H]1CCOC1)S(=O)(=O)c1ccc(N)cc1 [Amprenavir],"0 (compounds with IC50 > 20 μM, percentage inhibition <80% at 20 µM or 50 μM, or percentage enzyme inhibition <50% at 10 µM were labelled as INACTIVE)"
6,CC(C)(C#N)c1cc(Cn2cncn2)cc(C(C)(C)C#N)c1 [Anastrozole],"0 (compounds with IC50 > 20 μM, percentage inhibition <80% at 20 µM or 50 μM, or percentage enzyme inhibition <50% at 10 µM were labelled as INACTIVE)"
7,C=C[C@@H]1C[C@]1(NC(=O)[C@@H]1C[C@@H](Oc2ncc(OC)c3ccc(Cl)cc23)CN1C(=O)[C@@H](NC(=O)OC(C)(C)C)C(C)(C)C)C(=O)NS(=O)(=O)C1CC1 [Asunaprevir],"0 (compounds with IC50 > 20 μM, percentage inhibition <80% at 20 µM or 50 μM, or percentage enzyme inhibition <50% at 10 µM were labelled as INACTIVE)"
8,COC(=O)NC(C(=O)NC(Cc1ccccc1)C(O)CN(Cc1ccc(-c2ccccn2)cc1)NC(=O)C(NC(=O)OC)C(C)(C)C)C(C)(C)C (stereo not shown) [Atanazavir],"0 (compounds with IC50 > 20 μM, percentage inhibition <80% at 20 µM or 50 μM, or percentage enzyme inhibition <50% at 10 µM were labelled as INACTIVE)"
9,CC(C)c1c(C(=O)Nc2ccccc2)c(-c2ccccc2)c(-c2ccc(F)cc2)n1CC[C@@H](O)C[C@@H](O)CC(=O)O [Atorvastatin],"0 (compounds with IC50 > 20 μM, percentage inhibition <80% at 20 µM or 50 μM, or percentage enzyme inhibition <50% at 10 µM were labelled as INACTIVE)"
10,NC(=O)[C@@H](CCC(F)(F)F)N(Cc1ccc(-c2ncon2)cc1F)S(=O)(=O)c1ccc(Cl)cc1 [Avagacestat],"0 (compounds with IC50 > 20 μM, percentage inhibition <80% at 20 µM or 50 μM, or percentage enzyme inhibition <50% at 10 µM were labelled as INACTIVE)"
11,O=C(c1cc(=O)[nH]c2ccccc12)N1CCN(Cc2ccccc2)CC1 [BEN-DND-7e92b6ca-10],1 (Compounds with IC50 < 10 µM or with a percentage of enzyme inhibition >50% at 10 µM were labelled as ACTIVE)
12,COc1cccc(N2CCN(C(=O)c3cc(=O)[nH]c4ccccc34)CC2)c1 [BEN-DND-7e92b6ca-12],1 (Compounds with IC50 < 10 µM or with a percentage of enzyme inhibition >50% at 10 µM were labelled as ACTIVE)
13,O=C(Cn1ccnc1[N+](=O)[O-])NCc1ccccc1 [BENZNIDAZOLE],"0 (compounds with IC50 > 20 μM, percentage inhibition <80% at 20 µM or 50 μM, or percentage enzyme inhibition <50% at 10 µM were labelled as INACTIVE)"
14,COc1ccc(NC(=O)c2ccc(C(=N)N(C)C)cc2)c(C(=O)Nc2ccc(Cl)cn2)c1 [BETRIXABAN],"0 (compounds with IC50 > 20 μM, percentage inhibition <80% at 20 µM or 50 μM, or percentage enzyme inhibition <50% at 10 µM were labelled as INACTIVE)"
15,Nc1cc(C(F)(F)F)c(-c2nc(N3CCOCC3)nc(N3CCOCC3)n2)cn1 [BIMIRALISIB],"0 (compounds with IC50 > 20 μM, percentage inhibition <80% at 20 µM or 50 μM, or percentage enzyme inhibition <50% at 10 µM were labelled as INACTIVE)"
16,O=c1cc(-c2ccccc2)oc2cc(O)c(O)c(O)c12 [Baicalein],1 (Compounds with IC50 < 10 µM or with a percentage of enzyme inhibition >50% at 10 µM were labelled as ACTIVE)
17,O=C(O)[C@H]1O[C@@H](Oc2cc3oc(-c4ccccc4)cc(=O)c3c(O)c2O)[C@H](O)[C@@H](O)[C@@H]1O [Baicalin],"0 (compounds with IC50 > 20 μM, percentage inhibition <80% at 20 µM or 50 μM, or percentage enzyme inhibition <50% at 10 µM were labelled as INACTIVE)"
18,CNC(=O)[C@H](Cc1ccccc1)NC(=O)[C@H](CC(C)C)[C@H](CSc1cccs1)C(=O)NO [Batimastat],"0 (compounds with IC50 > 20 μM, percentage inhibition <80% at 20 µM or 50 μM, or percentage enzyme inhibition <50% at 10 µM were labelled as INACTIVE)"
19,CC(O)(CS(=O)(=O)c1ccc(F)cc1)C(=O)Nc1ccc(C#N)c(C(F)(F)F)c1 (stereo not shown) [Bicalutamide],"0 (compounds with IC50 > 20 μM, percentage inhibition <80% at 20 µM or 50 μM, or percentage enzyme inhibition <50% at 10 µM were labelled as INACTIVE)"
20,CC1=C(C(=O)O)N2C(=O)[C@@H](NC(=O)[C@H](N)c3ccccc3)[C@H]2SC1 [CEPHALEXIN],"0 (compounds with IC50 > 20 μM, percentage inhibition <80% at 20 µM or 50 μM, or percentage enzyme inhibition <50% at 10 µM were labelled as INACTIVE)"
